In publication PMC12203311, “Design, synthesis, in silico and in vitro evaluation of pyrrole–indole hybrids as dual tubulin and aromatase inhibitors with potent anticancer activities” (RSC Advances, 2025):

What was measured:
Test in all cases: NCI60 five-dose screen
[1] = system: CCRF-CEM; format: cell-based; conditions: Homo sapiens, leukemia; for CC50: read-out: LC50 (the source's name)
[2] = system: HL-60 (TB); format: cell-based; conditions: Homo sapiens, leukemia; for CC50: read-out: LC50 (the source's name)
[3] = system: RPMI-8226; format: cell-based; conditions: Homo sapiens, RPMI-8226, leukemia; for CC50: read-out: LC50 (the source's name)
[4] = system: A549/ATCC; format: cell-based; conditions: Homo sapiens, NSC lung cancer; for CC50: read-out: LC50 (the source's name)
[5] = system: HOP-62; format: cell-based; conditions: Homo sapiens, HOP-62, NSC lung cancer; for CC50: read-out: LC50 (the source's name)
[6] = system: HOP-92; format: cell-based; conditions: Homo sapiens, HOP-92, NSC lung cancer; for CC50: read-out: LC50 (the source's name)
[7] = system: NCI-H226; format: cell-based; conditions: Homo sapiens, NCI-H226, NSC lung cancer; for CC50: read-out: LC50 (the source's name)
[8] = system: NCI-H23; format: cell-based; conditions: Homo sapiens, NCI-H23, NSC lung cancer; for CC50: read-out: LC50 (the source's name)
[9] = system: NCI-H460; format: cell-based; conditions: Homo sapiens, NCI-H460, NSC lung cancer; for CC50: read-out: LC50 (the source's name)
[10] = system: COLO 205; format: cell-based, human; conditions: Homo sapiens; for CC50: COLO 205, COLO 205, colon cancer, read-out: LC50 (the source's name); for GI50: COLO 205, colon cancer
[11] = system: HCT-15; format: cell-based; conditions: Homo sapiens, HCT-15, colon cancer; for CC50: read-out: LC50 (the source's name)
[12] = system: SF-268; format: cell-based; conditions: Homo sapiens, SF-268, CNS cancer; for CC50: read-out: LC50 (the source's name)
[13] = system: SF-295; format: cell-based; conditions: Homo sapiens, SF-295, CNS cancer; for CC50: read-out: LC50 (the source's name)
[14] = system: LOX IMVI; format: cell-based; conditions: Homo sapiens, melanoma; for CC50: read-out: LC50 (the source's name)
[15] = system: MALME-3M; format: cell-based; conditions: Homo sapiens, melanoma; for CC50: read-out: LC50 (the source's name)
[16] = system: MDA-MB-435; format: cell-based, human; conditions: Homo sapiens; for CC50: MDA-MB-435, MDA-MB-435, melanoma, read-out: LC50 (the source's name); for GI50: MDA-MB-435, melanoma
[17] = system: SK-MEL-28; format: cell-based; conditions: Homo sapiens, SK-MEL-28, melanoma; for CC50: read-out: LC50 (the source's name)
[18] = system: UACC-257; format: cell-based; conditions: Homo sapiens, UACC-257, melanoma; for CC50: read-out: LC50 (the source's name)
[19] = system: OVCAR-8; format: cell-based; conditions: Homo sapiens, OVCAR-8, ovarian cancer; for CC50: read-out: LC50 (the source's name)
[20] = system: SK-OV-3; format: cell-based; conditions: Homo sapiens, SK-OV-3, ovarian cancer; for CC50: read-out: LC50 (the source's name)
[21] = system: 786-0; format: cell-based; conditions: Homo sapiens, 786-0, renal cancer; for CC50: read-out: LC50 (the source's name)
[22] = system: A498; format: cell-based; conditions: Homo sapiens, A498, renal cancer; for CC50: read-out: LC50 (the source's name)
[23] = system: CAKI-1; format: cell-based; conditions: Homo sapiens, CAKI-1, renal cancer; for CC50: read-out: LC50 (the source's name)
[24] = system: RXF 393; format: cell-based; conditions: Homo sapiens, RXF 393, renal cancer; for CC50: read-out: LC50 (the source's name)
[25] = system: SN12C; format: cell-based; conditions: Homo sapiens, renal cancer; for CC50: read-out: LC50 (the source's name)
[26] = system: PC-3; format: cell-based; conditions: Homo sapiens, PC-3, prostate cancer; for CC50: read-out: LC50 (the source's name)
[27] = system: BT-549; format: cell-based; conditions: Homo sapiens, BT-549, breast cancer; for CC50: read-out: LC50 (the source's name)
[28] = system: MDA-MB-468; format: cell-based; conditions: Homo sapiens, MDA-MB-468, breast cancer; for CC50: read-out: LC50 (the source's name)
[29] = system: UO-31; format: cell-based; conditions: Homo sapiens, UO-31, renal cancer

`O=C(N/N=C/c1cc([N+](=O)[O-])c[nH]1)c1[nH]c2ccc(Br)cc2c1-c1ccccc1` [Derivative 3q, (E)-5-Bromo-N′-((4-nitro-1H-pyrrol-2-yl)methylene)-3-phenyl-1H-indole-2-carbohydrazide] was tested, and the GI50 [1] was 0.799 µM, the CC50 [1] was greater than 100 µM and the GI50 [2] was 0.633 µM. The CC50 [2] was greater than 100 µM, the GI50 [3] was 3.71 µM and the CC50 [3] was greater than 100 µM. The GI50 [4] was 1.79 µM, the CC50 [4] was greater than 100 µM and the GI50 [5] was 1.26 µM. For the same compound, the CC50 [5] was greater than 100 µM, the GI50 [6] was 11.6 µM and the CC50 [6] was greater than 100 µM. It also gave a GI50 [7] of 3.39 µM, a CC50 [7] greater than 100 µM and a GI50 [8] of 2.57 µM. The CC50 [8] was greater than 100 µM, the GI50 [9] was 0.328 µM and the CC50 [9] was greater than 100 µM. It also gave a CC50 [10] greater than 100 µM, a GI50 [10] of 1.28 µM and a GI50 [11] of 0.504 µM. The CC50 [11] was greater than 100 µM, the GI50 [12] was 0.774 µM and the CC50 [12] was greater than 100 µM. The GI50 [13] was 0.623 µM, the CC50 [13] was greater than 100 µM and the GI50 [14] was 0.647 µM. It also gave a CC50 [14] greater than 100 µM, a GI50 [15] of 0.83 µM and a CC50 [15] greater than 100 µM. It also gave a CC50 [16] of 8.78 µM, a GI50 [16] of 0.226 µM and a GI50 [17] of 0.89 µM. It also gave a CC50 [17] greater than 100 µM, a GI50 [18] of 2.58 µM and a CC50 [18] greater than 100 µM. For the same compound, the GI50 [19] was 10.2 µM, the CC50 [19] was greater than 100 µM and the GI50 [20] was 3.14 µM. The CC50 [20] was greater than 100 µM, the GI50 [21] was 2.21 µM and the CC50 [21] was greater than 100 µM. It also gave a GI50 [22] of 10.7 µM, a CC50 [22] greater than 100 µM and a GI50 [23] of 0.53 µM. For the same compound, the CC50 [23] was greater than 100 µM, the GI50 [24] was 0.734 µM and the CC50 [24] was greater than 100 µM. For the same compound, the GI50 [25] was 2.58 µM, the CC50 [25] was greater than 100 µM and the GI50 [26] was 0.724 µM. The CC50 [26] was greater than 100 µM, the GI50 [27] was 2.47 µM and the CC50 [27] was greater than 100 µM. The GI50 [28] was 0.503 µM and the CC50 [28] was greater than 100 µM.

`O=C(N/N=C/c1cc[nH]c1)c1[nH]c2ccc(Br)cc2c1-c1ccccc1` [Derivative 3b, (E)-N′-((1H-Pyrrol-3-yl)methylene)-5-bromo-3-phenyl-1H-indole-2-carbohydrazide] gave a GI50 [1] of 0.821 µM, a CC50 [1] greater than 100 µM and a GI50 [2] of 0.598 µM. The CC50 [2] was greater than 100 µM, the GI50 [3] was 1.43 µM and the CC50 [3] was greater than 100 µM. It also gave a GI50 [4] of 1.61 µM, a CC50 [4] of 52.6 µM and a GI50 [5] of 2.01 µM. For the same compound, the CC50 [5] was 61.4 µM, the GI50 [6] was 1.87 µM and the CC50 [6] was 50.3 µM. The GI50 [7] was 2.52 µM, the CC50 [7] was 51.2 µM and the GI50 [8] was 1.87 µM. It also gave a CC50 [8] of 33.9 µM, a GI50 [9] of 0.657 µM and a CC50 [9] of 46 µM. The CC50 [10] was 20.4 µM, the GI50 [10] was 1.23 µM and the GI50 [11] was 0.918 µM. It also gave a CC50 [11] of 34 µM, a GI50 [12] of 2.41 µM and a CC50 [12] of 59.1 µM. The GI50 [13] was 1.94 µM, the CC50 [13] was 33.8 µM and the GI50 [14] was 0.916 µM. For the same compound, the CC50 [14] was 38.7 µM, the GI50 [15] was 3.46 µM and the CC50 [15] was 48.3 µM. The CC50 [16] was 15.8 µM, the GI50 [16] was 0.463 µM and the GI50 [17] was 5.75 µM. The CC50 [17] was 44.4 µM, the GI50 [18] was 8.22 µM and the CC50 [18] was 47.8 µM. The GI50 [19] was 1.21 µM, the CC50 [19] was 38.6 µM and the GI50 [20] was 5.59 µM. It also gave a CC50 [20] of 71.9 µM, a GI50 [21] of 5.46 µM and a CC50 [21] of 77.2 µM. For the same compound, the GI50 [22] was 12.7 µM, the CC50 [22] was 54.6 µM and the GI50 [23] was 0.776 µM. The CC50 [23] was 44.1 µM, the GI50 [24] was 1.78 µM and the CC50 [24] was 46.5 µM. For the same compound, the GI50 [25] was 1.49 µM, the CC50 [25] was 37.7 µM and the GI50 [29] was 1.66 µM. The CC50 ([29]; read-out: LC50 (the source's name)) was 41 µM, the GI50 [26] was 2 µM and the CC50 [26] was greater than 100 µM. For the same compound, the GI50 [27] was 4.53 µM, the CC50 [27] was 52.3 µM and the GI50 [28] was 0.593 µM. The CC50 [28] was 24.2 µM.

`O=C(N/N=C/c1ccc([N+](=O)[O-])[nH]1)c1[nH]c2ccc(Br)cc2c1-c1ccccc1` [Derivative 3p, (E)-5-Bromo-N′-((5-nitro-1H-pyrrol-2-yl)methylene)-3-phenyl-1H-indole-2-carbohydrazide] gave a GI50 [1] of 0.382 µM, a CC50 [1] greater than 100 µM and a GI50 [2] of 0.374 µM. The CC50 [2] was greater than 100 µM, the GI50 [3] was 0.468 µM and the CC50 [3] was greater than 100 µM. For the same compound, the GI50 [4] was 2.23 µM, the CC50 [4] was 44.9 µM and the GI50 [5] was 0.606 µM. It also gave a CC50 [5] of 39.5 µM, a GI50 [6] of 1.79 µM and a CC50 [6] of 47.3 µM. The GI50 [7] was 2.43 µM, the CC50 [7] was 46.9 µM and the GI50 [8] was 1.45 µM. It also gave a CC50 [8] of 35.4 µM, a GI50 [9] of 0.421 µM and a CC50 [9] of 45.9 µM. The CC50 [10] was 8.08 µM, the GI50 [10] was 1.52 µM and the GI50 [11] was 0.607 µM. It also gave a CC50 [11] of 35.7 µM, a GI50 [12] of 1.47 µM and a CC50 [12] of 44.2 µM. It also gave a GI50 [13] of 0.413 µM, a CC50 [13] of 29.9 µM and a GI50 [14] of 0.519 µM. It also gave a CC50 [14] of 35.8 µM, a GI50 [15] of 3.23 µM and a CC50 [15] of 56.2 µM. The CC50 [16] was 29.8 µM, the GI50 [16] was 0.253 µM and the GI50 [17] was 2.24 µM. The CC50 [17] was 43.5 µM, the GI50 [18] was 3.12 µM and the CC50 [18] was 48.2 µM. The GI50 [19] was 1.02 µM, the CC50 [19] was 39 µM and the GI50 [20] was 2.95 µM. It also gave a CC50 [20] of 43 µM, a GI50 [21] of 0.803 µM and a CC50 [21] of 41.4 µM. For the same compound, the GI50 [22] was 2.6 µM, the CC50 [22] was 43.7 µM and the GI50 [23] was 0.411 µM. It also gave a CC50 [23] of 34.9 µM, a GI50 [24] of 0.411 µM and a CC50 [24] of 41.2 µM. For the same compound, the GI50 [25] was 1.24 µM, the CC50 [25] was 36.7 µM and the GI50 [26] was 1.2 µM. It also gave a CC50 [26] of 78.5 µM, a GI50 [27] of 1.52 µM and a CC50 [27] of 28.4 µM. For the same compound, the GI50 [28] was 0.873 µM and the CC50 [28] was 34.7 µM.
